Data published in publication PMC9305971, “Development of [^18F]AmBF3 Tetrazine for Radiolabeling of Peptides: Preclinical Evaluation and PET Imaging of [^18F]AmBF3-PEG7-Tyr^3-Octreotide in an AR42J Pancreatic Carcinoma Model” (Bioconjugate Chemistry, 2022).

Columns and labels:
[1] = Hydrolytic stability in 0.01 M PBS / formulated solution (radio-HPLC); format: physicochemical; conditions: t = 3 h, 0.01 M PBS, pH 7.4
Method: (§1) Lipophilicity was determined with the shake-flask method as a distribution coefficient between 0.01 M PBS and octanol. Purified radiotracer [^18F]6 (10 μL, ∼200 kBq, 1.5 nmol), [^18F]14 (20 μL, ∼260 kBq, 125 pmol), or [^18F]15 (20 μL, 144 kBq, 67 pmol) in a polypropylene tube containing 1500–2000 μL of each in a 1:1 mixture (1-octanol, 0.02 M PBS, pH 7.4) was shaken mechanically (500 rpm, 10 min) and centrifuged (1000g, 5 min), and samples from each layer (400 μL, n = 4) were measured with a γ-counter. The log D7.4 was calculated as a distribution between the two layers at pH 7.4. [^18F]6 (10 MBq, 40 nmol) diluted with 0.01 M PBS at pH 7.4 (≤1% ethanol, 5300 μL) was incubated for 180 min. At selected time points (5, 30, 60, 90, 120, 150, and 180 min), a sample (100 μL) was injected to radio-HPLC. [^18F]14 and [^18F]15 (29 MBq, 10 nmol) diluted in 2000 μL of 0.01 M PBS (≤1% ethanol) were left to incubate. A sample of [^18F]14 (100 μL) after 9 hours and [^18F]15 at selected time points between 30 and 335 min were injected into HPLC (method A). [^18F]15 (0.6 MBq, 0.134 nmol, 200 μL) formulated in ≤5% EtOH-1 × PBS was added and incubated in 2000 μL of PBS-50% human plasma at 37 °C. A 100 μL sample (at 60, 120, 180, and 240 min, n = 2) was diluted with 200 μL of cold acetonitrile and centrifuged (10,000g, 5 min). After centrifugation, a 100 μL sample of the supernatant was injected for radio-HPLC analysis.

[2] = PET/CT and ex vivo biodistribution of [18F]6 in healthy mice; design: species or system male SCID and female C57BL/6JRj mice; conditions: i.v.; for bone uptake in tibia / gallbladder uptake: 270 min post injection
Method: [^18F]6 in 10% ethanol–0.01 M PBS was administered intravenously to male Fox Chase SCID mice (CB.17 SCID) (11.0 ± 0.5 MBq, ∼11 nmol, ∼150 μL, n = 4) and healthy female C57BL/6JRj mice (11.3 ± 0.3 MBq, ∼11 nmol, ∼150 μL, n = 4) under 2% isoflurane anesthesia. The PET/CT image was acquired with Inveon PET/CT for 60 min followed by a 15 min static scan 4 h after injection of the tracer. The images of the dynamic scan were reconstructed to time frames 60 × 10, 10 × 60, 4 × 300, and 3 × 600 s. After the second PET imaging (t = 270 ± 1.9 min post injection, n = 4), the organs were harvested and the radioactivity in each tissue sample was measured with a γ-counter and reported as a percentage of injected dose per gram of tissue (% ID/g). [^18F]15 was formulated in 4% ethanol in 0.01 M PBS and administered intravenously (0.2 nmol, 0.80 ± 0.30 MBq; tracer: 150 μL; tracer + blocking dose: 200 μL) to AR42J tumor-bearing Rj:NMRI-Foxn1^nu/nu mice (n = 4) under 2% isoflurane anesthesia. PET/CT images were acquired with Molecubes PET (β-CUBE) coupled with a CT (X-CUBE) (MOLECUBES NV, Ghent, Belgium) with two mice being imaged at the same time under 2% isoflurane anesthesia. Images were reconstructed to time frames 30 × 10, 15 × 60, 4 × 300, and 5 × 600 s. Quantitative image analysis was done with Carimas software (v 2.10, Turku PET Centre, Turku, Finland). Spherical ROIs were hand-drawn based on anatomical CT data and PET signal for the desired organs. The results are presented as standardized uptake values (SUVs).

[3] = Lipophilicity, shake-flask log D7.4 (1-octanol/PBS); format: physicochemical; conditions: 1-octanol/PBS pH 7.4, n = 4
Method: as §1, with “analysis. […]” for “analysis.”
Lipophilicity. The lipophilicities were determined with the shake-flask method as a distribution profile between 0.01 M PBS and octanol at pH 7.4. The distribution of the radiolabeled compound between the octanol and the PBS layers was calculated according

With `C[N+](C)(CCNC(=O)Cc1ccc(-c2nncnn2)cc1)C[B-](F)(F)[18F]` [[^18F]6] the “hydrolytic stability, intact” value [1] was no less than 99%, the “bone uptake in tibia” value ([2]; C57BL/6JRj female mice) was 0.4 ± 0.1 % ID/g and the gallbladder uptake ([2]; C57BL/6JRj female mice) was 6.4 ± 2.5 % ID/g. For the same compound, the “bone uptake in tibia” value ([2]; SCID male mice) was 0.3 ± 0.1 % ID/g, the gallbladder uptake ([2]; SCID male mice) was 3.5 ± 2.4 % ID/g and the major elimination pathway ([2]; PET/CT and ex vivo biodistribution 270 min post injection) was “renal clearance”. It also gave a logD [3] of -0.13 ± 0.06.
